Legend:
Experiment in all cases: relative viability (nuclei count vs DMSO), 5 days (fraction); higher = more cells survive
[1] = compound: COc1cc2nc(N3CCCN(C)CC3)nc(NC3CCN(Cc4ccccc4)CC3)c2cc1OC + N=C(N)NC(=N)NCCc1ccccc1 [Phenformin] (partner 250 µM)
Outline: (§1)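 Five library-drug doses in √10 steps were combined with a fixed anchor-drug dose, or a single drug was given alone, by pin tool to lung cancer cell lines in 1536-well plates the day after seeding. Nuclei were stained and counted after 5 days. Relative viability is the nuclei count in treated wells over that in vehicle wells, taken as the median of duplicate plates.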

AZD6482 + Lapatinib = compound: Cc1cc([C@@H](C)Nc2ccccc2C(=O)O)c2nc(N3CCOCC3)cc(=O)n2c1 [AZD6482] + CS(=O)(=O)CCNCc1ccc(-c2ccc3ncnc(Nc4ccc(OCc5cccc(F)c5)c(Cl)c4)c3c2)o1 [Lapatinib] (partner 2 µM)
Outline: as §1

[2] = compound: COc1cc2nc(N3CCCN(C)CC3)nc(NC3CCN(Cc4ccccc4)CC3)c2cc1OC + O=C(CCCCCCC(=O)Nc1ccccc1)NO [Vorinostat] (partner 1 µM)
Outline: as §1

AZD6482 + Vorinostat = compound: Cc1cc([C@@H](C)Nc2ccccc2C(=O)O)c2nc(N3CCOCC3)cc(=O)n2c1 [AZD6482] + O=C(CCCCCCC(=O)Nc1ccccc1)NO [Vorinostat] (partner 1 µM)
Outline: as §1

Row | Cell Line | relative viability ([1]; first compound 0.2 µM) | relative viability ([1]; first compound 0.6325 µM) | relative viability ([1]; first compound 2 µM) | relative viability ([1]; first compound 6.325 µM) | relative viability (AZD6482 + Lapatinib; first compound 0.08 µM) | relative viability (AZD6482 + Lapatinib; first compound 0.253 µM) | relative viability (AZD6482 + Lapatinib; first compound 0.8 µM) | relative viability (AZD6482 + Lapatinib; first compound 2.53 µM) | relative viability (AZD6482 + Lapatinib; first compound 8 µM) | relative viability ([2]; first compound 0.2 µM) | relative viability ([2]; first compound 0.6325 µM) | relative viability ([2]; first compound 2 µM) | relative viability ([2]; first compound 6.325 µM) | relative viability (AZD6482 + Vorinostat; first compound 0.08 µM) | relative viability (AZD6482 + Vorinostat; first compound 0.253 µM) | relative viability (AZD6482 + Vorinostat; first compound 0.8 µM) | relative viability (AZD6482 + Vorinostat; first compound 2.53 µM) | relative viability (AZD6482 + Vorinostat; first compound 8 µM)
1 | HCC-78 | 0.73 | 0.793 | 0.675 | 0.777 | 0.512 | 0.683 | 1.52 | 0.255 | 0.503 | 0.495 | 0.442 | 0.462 | 0.429 | 0.499 | 0.389 | 0.395 | 0.298 | 0.341
2 | IA-LM |  |  |  |  | 0.898 | 1.13 | 0.903 |  | 0.626 | 0.983 | 0.876 | 0.908 | 0.975 | 0.858 | 0.906 | 1.03 |  | 0.854
3 | NCI-H322M | 0.669 | 0.743 | 0.748 | 0.762 | 0.53 | 0.441 | 0.561 | 0.357 | 0.495 | 0.838 | 0.939 | 0.855 | 0.868 | 0.846 | 0.818 | 0.812 | 0.473 | 0.565
4 | NCI-H3122 | 0.403 | 0.363 | 0.401 | 0.331 | 0.965 | 0.993 | 1.03 | 0.893 | 1.11 | 1.04 | 1.04 | 0.921 | 0.937 | 1.01 | 1.1 | 0.829 | 0.84 | 0.796
5 | COR-L23 | 0.456 | 0.446 | 0.494 | 0.398 | 0.938 | 0.948 | 1.15 | 0.734 | 0.893 | 0.536 | 0.406 | 0.561 | 0.286 | 0.269 | 0.512 | 0.505 | 0.28 | 0.442
6 | NCI-H2087 | 0.413 | 0.439 | 0.48 | 0.393 | 1.22 | 1.12 | 1.43 | 0.864 | 0.98 | 0.806 | 0.618 | 0.521 | 0.611 | 0.465 | 0.81 | 0.98 | 0.183 | 0.92
7 | LC-2-ad | 0.528 | 0.568 | 0.644 | 0.521 | 1.06 | 0.553 | 1.1 | 0.638 | 0.918 | 0.679 | 0.716 | 0.763 | 0.693 | 0.703 | 0.702 | 0.854 | 0.605 | 0.625
8 | NCI-H1915 | 0.371 | 0.351 | 0.374 | 0.364 | 0.933 | 0.813 | 1.05 | 0.844 | 1.01 | 0.506 | 0.426 | 0.514 | 0.472 | 0.432 | 0.467 | 0.538 | 0.4 | 0.462
9 | NCI-H1793 | 0.372 | 0.385 | 0.404 | 0.364 | 0.559 | 0.368 | 0.565 |  | 0.321 | 0.692 | 1.06 | 0.871 | 0.638 | 0.582 | 0.481 | 0.676 | 0.38 | 0.404
10 | NCI-H2023 | 0.424 | 0.414 | 0.498 | 0.272 | 0.729 | 0.74 | 0.798 | 0.424 | 0.422 | 0.565 | 0.63 | 0.509 | 0.0993 | 0.642 | 0.435 | 0.509 | 0.37 | 0.455
11 | COR-L 105 | 0.461 | 0.514 | 0.472 | 0.343 | 0.382 | 0.326 | 0.351 | 0.364 | 0.355 | 0.805 | 1.04 | 0.728 | 0.595 | 0.75 | 0.663 | 0.907 | 0.649 | 0.648
12 | RERF-LC-KJ | 0.442 | 0.433 | 0.397 | 0.418 | 0.752 | 0.836 | 0.705 | 0.791 | 0.67 | 0.61 | 0.704 | 0.703 | 0.589 | 0.648 | 0.616 | 0.557 | 0.648 | 0.514
13 | NCI-H1792 |  | 0.257 | 0.467 | 0.268 | 0.814 | 0.815 | 0.879 | 0.628 | 0.598 |  |  |  |  |  |  |  |  | 
14 | ChaGo-K-1 | 0.51 | 0.494 | 0.492 | 0.498 |  |  |  |  |  | 0.784 | 0.749 | 0.779 | 0.717 | 0.752 | 0.7 | 0.744 | 0.708 | 0.773
15 | NCI-H2342 | 0.597 | 0.512 | 0.649 | 0.606 |  |  |  |  |  | 0.638 | 0.729 | 0.792 | 0.757 | 0.733 | 0.683 | 0.71 | 0.518 | 0.48
16 | NCI-H1299 |  |  |  |  | 0.94 | 0.956 | 1.11 | 0.948 | 0.983 |  |  |  |  |  |  |  |  | 
17 | SW 900 | 0.522 | 0.682 | 0.645 | 0.47 |  |  |  |  |  | 0.365 | 0.713 | 0.565 | 0.375 | 0.38 | 0.357 | 0.528 | 0.328 | 0.402
18 | NCI-H1648 |  |  |  |  |  |  |  |  |  |  | 0.562 |  | 0.616 | 0.545 | 0.422 | 0.552 |  | 0.402
19 | NCI-H522 | 0.649 | 0.68 | 0.613 | 0.745 |  |  |  |  |  | 0.803 | 0.884 | 0.879 | 0.676 | 0.818 | 0.896 | 0.805 | 0.829 | 0.759
20 | A549 | 0.185 | 0.165 | 0.195 | 0.146 | 0.944 | 0.891 | 0.913 | 0.485 | 0.571 |  |  |  |  |  |  |  |  | 
21 | NCI-H1563 | 0.638 | 0.75 | 0.68 | 0.666 | 0.902 | 0.842 | 0.876 | 0.674 | 0.778 |  |  |  |  |  |  |  |  | 
22 | LCLC-103H | 0.36 | 0.344 | 0.367 | 0.36 |  |  |  |  |  | 0.776 | 0.754 | 0.844 | 0.656 | 0.661 | 0.748 | 0.784 | 0.565 | 0.51
23 | NCI-H441 | 0.821 | 0.859 | 1.03 | 0.85 |  |  |  |  |  | 0.77 | 0.647 | 0.927 | 0.862 | 0.854 | 0.788 | 0.741 |  | 0.782
